Converted amounts (≈) assume the structure as drawn. Where a name gives a salt, the structure may show the parent alone.
Key:
Assay type in all cases: cell-based
[1] = tested on: S. aureus ATCC 49951 (NB01006); assay: MIC by broth microdilution, S. aureus NB01006; conditions: 35° C., 20 hours; for MIC: Staphylococcus aureus, ATCC49951, CAMHB, read-out: Antibacterial activity (MIC) NB01006
Outline: (§1)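 Per CLSI, strains grown overnight on Mueller-Hinton agar are tested in cation-adjusted Mueller-Hinton broth at about 5×10^5 CFU/mL against serially diluted compound, 1% DMSO final. Incubation runs 20 h at 35° C; MIC is judged visually with OD600 support.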

[2] = tested on: P. aeruginosa NB52019, wild-type PAO1 strain; assay: MIC by broth microdilution, P. aeruginosa NB52019; conditions: CAMHB, 35° C., 20 hours; for MIC: Pseudomonas aeruginosa, read-out: Antibacterial activity (MIC) NB52019
Outline: as §1

[3] = tested on: S. aureus NB01006-AVR005, gyrA (S84L), grlA (580F) and grlB (E471K); assay: microbe, parasite or virus in culture; conditions: for MIC: Staphylococcus aureus, 20 h, read-out: Antibacterial activity (MIC) NB01006-AVR005
Outline: as §1

[4] = tested on: S. pneumoniae ATCC 25922 (NB07001); assay: MIC by broth microdilution, S. pneumoniae NB07001; conditions: for MIC: Streptococcus pneumoniae, ATCC25922, 20 h, read-out: Antibacterial activity (MIC) NB07001
Outline: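 CAMHB, ~5×10^5 CFU/mL, 2-fold serial dilutions (final DMSO 1%), 35° C, ambient air, 20 h. Read OD600 plus visual check; MIC = lowest conc. with no visible growth, μg/mL.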

[5] = tested on: E. faecalis ATCC 29212 (NB04001); assay: MIC by broth microdilution, E. faecalis NB04001; conditions: 35° C., 20 hours; for MIC: Enterococcus faecalis, ATCC29212, CAMHB, read-out: Antibacterial activity (MIC) NB04001
Outline: as §1

[6] = tested on: E. coli ATCC 25922 (NB27001); assay: MIC by broth microdilution, E. coli NB27001; conditions: 35° C., 20 hours; for MIC: Escherichia coli, ATCC25922, CAMHB, read-out: Antibacterial activity (MIC) NB27001
Outline: as §1

[7] = tested on: S. aureus NB01080 fluoroquinolone-resistant clinical isolate; assay: MIC by broth microdilution, S. aureus NB01080; conditions: CAMHB, 35° C., 20 hours; for MIC: Staphylococcus aureus, read-out: Antibacterial activity (MIC) NB01080
Outline: as §1

`C[C@H]1COc2c(N3CC[C@@H](C4(N)CC4)C3)cc(F)c3cc(C(=O)O)c(=O)n1c23` [Example 12.1, (S)-10-((R)-3-(1-aminocyclopropyl)pyrrolidin-1-yl)-8-fluoro-3-methyl-5-oxo-2,3-dihydro-5H-[1,4]oxazino[2,3,4-ij]quinoline-6-carboxylic acid trifluoroacetate salt] was tested, and the MIC [1] was under 1 µg/mL, the MIC [2] was 1 to 32 µg/mL and the MIC [3] was under 1 µg/mL. For the same compound, the MIC [4] was under 1 µg/mL, the MIC [5] was under 1 µg/mL and the MIC [6] was under 1 µg/mL. For the same compound, the MIC [7] was under 1 µg/mL.
`C[C@H]1COc2c(N3CC4CC(N)C4C3)c(F)cc3cc(C(=O)O)c(=O)n1c23` (single isomer, unassigned) [Example 1.62] gave an MIC [1] of 1 to 32 µg/mL (≈ 2.68 to 85.7 µM), an MIC [2] of over 32 µg/mL and an MIC [3] of over 32 µg/mL. It also gave an MIC [4] of over 32 µg/mL, an MIC [5] of over 32 µg/mL and an MIC [6] of over 32 µg/mL. For the same compound, the MIC [7] was over 32 µg/mL.
`C[C@H]1COc2c(N3CCCC4(CCNC4)C3)c(F)cc3cc(C(=O)O)c(=O)n1c23` (mixture of isomers) [Example 1.71, (3S)-9-fluoro-3-methyl-5-oxo-10-(2,7-diazaspiro[4.5]decan-7-yl)-2,3-dihydro-5H-[1,4]oxazino[2,3,4-ij]quinoline-6-carboxylic acid] gave an MIC [1] of over 32 µg/mL, an MIC [2] of over 32 µg/mL and an MIC [3] of over 32 µg/mL. For the same compound, the MIC [4] was over 32 µg/mL, the MIC [5] was over 32 µg/mL and the MIC [6] was over 32 µg/mL. The MIC [7] was over 32 µg/mL.
With “(S)-9-fluoro-3-methyl-10-((R)-3-(1-((2,2,2-trifluoroacetyl)-14-azanyl)cyclopropyl)pyrrolidin-1-yl)-2,3-dihydro-5H-[1,4]oxazino[2,3,4-ij]quinolin-5-one trifluoroacetate salt [Example 6.1]” the “Antibacterial activity (MIC) NB01006” value ([1]; CAMHB) was “A (1 > A)”, the “Antibacterial activity (MIC) NB52019” value [2] was “C (C ≥ 32)” and the “Antibacterial activity (MIC) NB01006-AVR005” value ([3]; ciprofloxacin-selected S. aureus mutant, CAMHB, 35° C., 20 hours) was “A (1 > A)”. The “Antibacterial activity (MIC) NB07001” value ([4]; S. pneumoniae, CAMHB supplemented with 5% lysed horse blood, 35° C., 20 hours) was “A (1 > A)”, the “Antibacterial activity (MIC) NB04001” value ([5]; CAMHB) was “A (1 > A)” and the “Antibacterial activity (MIC) NB27001” value ([6]; CAMHB) was “B (32 > B ≥ 1)”. The “Antibacterial activity (MIC) NB01080” value [7] was “A (1 > A)”.
Compound `C[C@H]1COc2c(N3CC[C@H](N)C3)c(F)cc3cc(C(=O)O)c(=O)n1c23` [Example 1.2, (S)-10-((S)-3-aminopyrrolidin-1-yl)-9-fluoro-3-methyl-5-oxo-2,3-dihydro-5H-[1,4]oxazino[2,3,4-ij]quinoline-6-carboxylic acid] has an MIC [1] of 1 to 32 µg/mL (≈ 2.88 to 92.1 µM), an MIC [2] of 1 to 32 µg/mL (≈ 2.88 to 92.1 µM) and an MIC [3] of over 32 µg/mL. It also gave an MIC [4] of 1 to 32 µg/mL (≈ 2.88 to 92.1 µM), an MIC [5] of 1 to 32 µg/mL (≈ 2.88 to 92.1 µM) and an MIC [6] of 1 to 32 µg/mL (≈ 2.88 to 92.1 µM). For the same compound, the MIC [7] was over 32 µg/mL.
In the case of `CC[C@H]1COc2c(N3CC[C@@H](C4(N)CC4)C3)c(F)cc3cc(C(=O)O)c(=O)n1c23` [Example 1.19, (S)-10-((R)-3-(1-aminocyclopropyl)pyrrolidin-1-yl)-3-ethyl-9-fluoro-5-oxo-2,3-dihydro-5H-[1,4]oxazino[2,3,4-ij]quinoline-6-carboxylic acid], the MIC [1] is reported as 1 to 32 µg/mL (≈ 2.49 to 79.7 µM), the MIC [2] is reported as over 32 µg/mL and the MIC [3] is reported as over 32 µg/mL. For the same compound, the MIC [4] was under 1 µg/mL, the MIC [5] was 1 to 32 µg/mL (≈ 2.49 to 79.7 µM) and the MIC [6] was over 32 µg/mL. It also gave an MIC [7] of 1 to 32 µg/mL (≈ 2.49 to 79.7 µM).
With `C[C@H]1COc2c(N3CCN(C)CC3)c(F)cc3cc(C(=O)O)c(=O)n1c23` [Example 1.4, (S)-9-fluoro-3-methyl-10-(4-methylpiperazin-1-yl)-5-oxo-2,3-dihydro-5H-[1,4]oxazino[2,3,4-ij]quinoline-6-carboxylic acid] the MIC [1] was 1 to 32 µg/mL (≈ 2.77 to 88.6 µM), the MIC [2] was over 32 µg/mL and the MIC [3] was over 32 µg/mL. It also gave an MIC [4] of over 32 µg/mL, an MIC [5] of over 32 µg/mL and an MIC [6] of 1 to 32 µg/mL (≈ 2.77 to 88.6 µM). For the same compound, the MIC [7] was over 32 µg/mL.
With `C[C@H]1COc2c(N3CCC(C(C)(C)N)C3)c(F)cc3cc(C(=O)O)c(=O)n1c23` (single isomer, unassigned) [Example 1.43] the MIC [1] was under 1 µg/mL, the MIC [2] was over 32 µg/mL and the MIC [3] was 1 to 32 µg/mL (≈ 2.57 to 82.2 µM). It also gave an MIC [4] of under 1 µg/mL, an MIC [5] of under 1 µg/mL and an MIC [6] of 1 to 32 µg/mL (≈ 2.57 to 82.2 µM). The MIC [7] was 1 to 32 µg/mL (≈ 2.57 to 82.2 µM).
`C[C@H]1COc2c(N3CCC(N)(CO)CC3)c(F)cc3cc(C(=O)O)c(=O)n1c23` [Example 1.67, (S)-10-(4-amino-4-(hydroxymethyl)piperidin-1-yl)-9-fluoro-3-methyl-5-oxo-2,3-dihydro-5H-[1,4]oxazino[2,3,4-ij]quinoline-6-carboxylic acid] was tested, and the MIC [1] was over 32 µg/mL, the MIC [2] was over 32 µg/mL and the MIC [3] was over 32 µg/mL. It also gave an MIC [4] of over 32 µg/mL, an MIC [5] of over 32 µg/mL and an MIC [6] of over 32 µg/mL. It also gave an MIC [7] of over 32 µg/mL.

Reference: patent publication US20180318311A1, “TRICYCLIC 2-QUINOLINONES AS ANTIBACTERIALS” (priority 2017, published 2018)
